The text below walks through data of patent US20040023986A1, “Substituted felbamate derived compounds” (priority 2003, published 2004).

The conditions of data set [1]: human, after felbamate; cited from earlier work.
Data set [2] can be described thus: Chemical stability of felbamate metabolites. Particulars: at relevant pH. It is filed as physicochemical.
For data set [3] the following is noted: cited from earlier work.
The conditions of data set [4]: felbamate therapy; cited from earlier work.
Data set [5] relates to rat model of painful peripheral neuropathy. The note with it: rat (Imamura 1995); cited from earlier work.
Data set [6] in a line: LC/MS quantification of felbamate and its metabolites excreted in patient urine. It is filed as in vivo, human. The note with it: 34 urine samples from 31 patients on felbamate therapy. On the procedure: Preparation of Patient Urine Samples. Urine samples were obtained from patient volunteers undergoing felbamate therapy for control of epileptic seizures and under the care of physicians at either the University of Virginia (Charlottesville, Va.) or the EpiCare Center (Memphis, Tenn.). Urine samples were diluted four fold with distilled water (this was done prior to overnight shipment for samples requiring shipping) and placed in an orbital shaking water bath for˜20 min at 37° C. to insure that all of the analytes were in solution. 500 μL of this diluted sample were removed and added to 100 μL of a mixture of the four deuterated internal standards. […] After mixing, 200 μL were removed and added to 20 μL of 20% H0Ac. […] This fraction was then analyzed by LC/MS without further manipulation.
LC/MS Analysis of Urine Samples for Metabolite Quantification. LC/MS analysis was performed using a Waters 2690 HPLC equipped with an autosampler and a Waters 486 tunable absorbance detector. […] The post-column flow was directed through a Waters 486 tunable absorbance detector (10 μL flow cell, λ=214 nm) which was used for qualitative assessment of the sample and not for quantitation. […]
Quantification was achieved by integration of the peaks from the mass chromatogram for each analyte using software (Navigator 1.1) provided with the LCQ. […]

Data set [7] has as its system intractable tic douloureux. Particulars: doses of 1200-2400 mg/day (Chesire 1995); cited from earlier work.

Each structure is given as a SMILES string.

`NC(=O)CC(C(=O)O)c1ccccc1` (centres unmarked) [acid carbamate 4, 3-carbamoyl-2-phenylpropionic acid]: the “fraction of a felbamate dose represented by the metabolite” value in data set [1] is given as ~12 % of a dose.
As for `O=C1NC(=O)C(c2ccccc2)CO1` (centres unmarked) [oxazinane-dione 9], in data set [2], the stability entry is listed as “unstable”.
For `NC(=O)OCC(COC(N)=O)c1ccccc1` [felbamate, 2-phenyl-1,3-propanediol dicarbamate], the “course of weight loss” value in data set [3] (add-on therapy in partial epilepsy in children (Carmant 1994)) was “weight loss was transient and returned to normal after twenty weeks”. In data set [3] (patients on felbamate monotherapy (Faught 1993)), the weight loss is 4-5%. Besides, the “mean onset time of severe toxicities” value in data set [4] is recorded as ≤ 6 months. Moreover, the measures of pain entry in data set [5] is recorded as “significant reductions in all measures of pain”. Further, in data set [6], the “presence of atropaldehyde derived mercapturic acids 7 and 8 in urine” value is “All of the urine samples analyzed were found to contain both of the mercapturic acids”. Moreover, the treatment effect result in data set [7] is “effectively treated”.
